This is an account of results in patent US5560935A, “Physiologically active substances extracted from activated tissues” (Nippon Zoki Pharmaceutical Co., Ltd., priority 1993, dated 1996).

This test relates to plasma kallikrein. Briefly: Inhibition of the production of plasma kallikrein (kaolin-activated plasma, synthetic substrate). The class given is biochemical. The conditions noted are these: normal human plasma, kaolin activation, substrate D-Pro-Phe-Arg-p-nitroaniline. As to the method:
The inhibitory action of the physiologically-active substance against the production of plasma kallikrein was measured according to a method described in Kiso to Rinsho, vol. 20, no. 17, pages 399-405 (1986).
Thus, a suspension of kaolin was added to normal human plasma diluted with a physiologically saline solution. A lima bean trypsin inhibitor was added thereto after a certain period to stop the kallikrein procluction reaction. Then the resulting kallikrein was determined by using a synthetic substrate (D-Pro-Phe-Arg-p-nitroaniline). The test substance was placed in the above system whereby the inhibitory action of the test substance against the production of kallikrein was determined.
In Table 1 the potency of the activity is given in terms of the concentration (IC50) at which the production of the plasma kallikrein was inhibited to an extent of 50%: […]
Take `CC(C(=O)O)c1cccc(C(=O)c2ccccc2)c1` (stereo not drawn) [Ketoprofen]: the “IC50, concentration at which the production of the plasma kallikrein was inhibited to an extent of 50%” value was 400 micrograms/ml.
With `CC(C)Cc1ccc(C(C)C(=O)O)cc1` (stereo not drawn) [Ibuprofen], the “IC50, concentration at which the production of the plasma kallikrein was inhibited to an extent of 50%” value was 700 micrograms/ml.
As for `CC(C)=CCN1CCC2(C)c3cc(O)ccc3CC1C2C` (stereo not drawn) [Pentazocine], the “IC50, concentration at which the production of the plasma kallikrein was inhibited to an extent of 50%” value is 1,600 micrograms/ml.
